In patent publication US9642851B2, “Indolinone derivative as tyrosine kinase inhibitor” (KBP Biosciences Co., Ltd., priority 2012, dated 2017) one finds IC50 and EC50 data, which are given here for four compounds.

Where a name gives a salt, the structure may show the parent alone.

For test [1], the target named is T1, FGFR1 (Homo sapiens, UniProt P11362).
T1 construct: purchased Carna
In words: In vitro enzymology inhibitory activity (Caliper mobility shift kinase assay). Format: biochemical. Particulars: reaction 1 hour at 28° C., FAM-labelled peptide and ATP. The method, then: (§1) • (1) Preparation of agents and compounds • (1) 1-fold kinase buffer without MnCl2 (50 mM HEPES, pH=7.5, 0.0015% Brij-35, 10 mM MgCl2, 2 mM DTT) • (2) 1-fold kinase buffer with MnCl2 (50 mM HEPES, pH=7.5, 0.0015% Brij-35, 10 mM MgCl2, 10 mM MnCl2, 2 mM DTT); • (3) Termination solution (100 mM HEPES, pH=7.5, 0.015% Brij-35, 0.2% Coating Reagent #3, 50 mM EDTA); • (4) 2.5-fold kinase solution (the VEGFR2, FGFR1, FGFR3, PDGFRβ kinases were added to the 1-fold kinase buffer respectively to prepare the corresponding 2.5-fold kinase solutions); • (5) 2.5-fold substrate solution: FAM-labelled peptide and ATP were added to the 1-fold kinase buffer to prepare a peptide solution; • (6) 4-fold dilution of the compound solution: the compound was accurately weighed, and dissolved in DMSO. The mixture was mixed sufficiently and evenly to prepare a 10 mM solution. Then the solution was diluted with DMSO to 500 μM, and 4-fold serial dilutions were done at 10 concentrations with a highest concentration of 50μM.
(§2) The calculated inhibition ratio (%)=(max. conversion−sample conversion)/(max. conversion−min. conversion)×100
(§3) The curve fitting was done with the software Xlfit to obtain the IC50 value.

For test [2], the target named is T2, FGFR3 (Homo sapiens, UniProt P22607).
T2 construct: purchased Carna
T2 sequence (P22607 23-806): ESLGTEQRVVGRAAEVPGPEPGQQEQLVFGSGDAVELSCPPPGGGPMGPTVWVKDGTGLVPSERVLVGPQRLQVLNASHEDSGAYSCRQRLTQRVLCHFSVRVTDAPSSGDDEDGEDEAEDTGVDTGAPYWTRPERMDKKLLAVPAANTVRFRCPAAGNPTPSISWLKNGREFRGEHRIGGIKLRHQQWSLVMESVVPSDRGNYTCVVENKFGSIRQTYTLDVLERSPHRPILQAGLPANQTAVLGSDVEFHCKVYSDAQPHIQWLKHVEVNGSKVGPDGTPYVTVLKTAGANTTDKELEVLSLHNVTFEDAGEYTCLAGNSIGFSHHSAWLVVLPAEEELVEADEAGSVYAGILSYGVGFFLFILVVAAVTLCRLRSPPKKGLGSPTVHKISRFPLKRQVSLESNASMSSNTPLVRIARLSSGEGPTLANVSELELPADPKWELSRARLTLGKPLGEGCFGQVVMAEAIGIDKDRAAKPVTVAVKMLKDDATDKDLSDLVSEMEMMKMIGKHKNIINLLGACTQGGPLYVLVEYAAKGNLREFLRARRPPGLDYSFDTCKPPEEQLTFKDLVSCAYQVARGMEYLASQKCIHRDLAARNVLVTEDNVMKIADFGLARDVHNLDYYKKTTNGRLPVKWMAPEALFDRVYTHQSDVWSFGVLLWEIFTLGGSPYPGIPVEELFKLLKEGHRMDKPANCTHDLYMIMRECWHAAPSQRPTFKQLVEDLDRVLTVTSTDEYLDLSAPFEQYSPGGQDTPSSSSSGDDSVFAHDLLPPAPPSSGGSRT
The description is as above. In kind it is biochemical. Conditions: reaction 1 hour at 28° C., FAM-labelled peptide and ATP. The protocol: as §1, §2, §3

Test [3] has as its target T3, PDGFRβ (Homo sapiens, UniProt P09619).
T3 construct: purchased BPS
The description is as above. In kind it is biochemical. Conditions: reaction 5 hour at 28° C., FAM-labelled peptide and ATP. The protocol:
as §1, §2, §3

For test [4], the target named is T4, VEGFR2 (Homo sapiens, UniProt P35968).
T4 construct: purchased Carna
T4 sequence (P35968 20-1356): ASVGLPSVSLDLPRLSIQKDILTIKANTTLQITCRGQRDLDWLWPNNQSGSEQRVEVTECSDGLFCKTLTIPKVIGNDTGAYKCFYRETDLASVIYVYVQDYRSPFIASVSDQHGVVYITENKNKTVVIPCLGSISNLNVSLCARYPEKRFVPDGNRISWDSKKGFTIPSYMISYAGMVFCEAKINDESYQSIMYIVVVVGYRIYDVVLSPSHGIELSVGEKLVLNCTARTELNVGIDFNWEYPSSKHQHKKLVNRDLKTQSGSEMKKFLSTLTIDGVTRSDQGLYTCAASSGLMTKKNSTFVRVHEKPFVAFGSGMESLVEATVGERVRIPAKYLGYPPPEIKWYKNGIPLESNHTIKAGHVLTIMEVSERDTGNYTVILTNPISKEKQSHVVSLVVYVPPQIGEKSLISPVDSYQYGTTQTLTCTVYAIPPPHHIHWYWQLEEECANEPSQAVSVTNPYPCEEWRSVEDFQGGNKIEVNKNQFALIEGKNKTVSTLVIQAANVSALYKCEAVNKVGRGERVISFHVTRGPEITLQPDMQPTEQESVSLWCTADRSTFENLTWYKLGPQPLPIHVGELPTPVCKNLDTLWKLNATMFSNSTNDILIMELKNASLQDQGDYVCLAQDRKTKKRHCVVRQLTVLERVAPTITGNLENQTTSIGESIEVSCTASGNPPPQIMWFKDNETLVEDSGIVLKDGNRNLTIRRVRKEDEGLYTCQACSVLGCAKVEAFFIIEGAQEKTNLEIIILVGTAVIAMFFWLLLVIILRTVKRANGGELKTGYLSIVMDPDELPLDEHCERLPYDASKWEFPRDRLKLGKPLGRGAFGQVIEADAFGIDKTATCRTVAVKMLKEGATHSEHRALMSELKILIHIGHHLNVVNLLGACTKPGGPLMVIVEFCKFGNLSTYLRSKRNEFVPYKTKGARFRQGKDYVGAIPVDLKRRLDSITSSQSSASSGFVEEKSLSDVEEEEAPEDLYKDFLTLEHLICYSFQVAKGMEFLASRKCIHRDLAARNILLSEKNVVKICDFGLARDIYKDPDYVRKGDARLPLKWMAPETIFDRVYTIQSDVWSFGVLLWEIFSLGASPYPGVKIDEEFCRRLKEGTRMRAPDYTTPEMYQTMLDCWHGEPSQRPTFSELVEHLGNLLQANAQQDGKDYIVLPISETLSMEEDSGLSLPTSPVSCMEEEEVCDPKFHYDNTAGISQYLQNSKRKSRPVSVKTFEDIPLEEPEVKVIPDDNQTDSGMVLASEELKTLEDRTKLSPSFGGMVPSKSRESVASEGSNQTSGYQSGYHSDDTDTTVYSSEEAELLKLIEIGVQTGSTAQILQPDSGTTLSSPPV
The test is described as above. Format: biochemical. Conditions: reaction 1 hour at 28° C., FAM-labelled peptide and ATP. The method, then:
as §1, §2, §3

The subject of test [5] is HUVEC cells. In words: In vitro cellular inhibitory activity, h-VEGF-A stimulated HUVEC proliferation. Conditions: Homo sapiens, h-VEGF-A 10 ng/ml, incubated for 89 hours, absorbance at 490 nm, read-out: ED50 for the HUVEC in vitro cells. Format: cell-based. The protocol: (§4) (1) Thawing cells and Passing cells.
(§5) The 3T3 cells were resuspended in a culture medium containing 10% fetal bovine serum, wherein the cell concentration was 5×10^4/ml. The cell suspension was added to a 96-well plate with 100 μL per well, and incubated overnight; the HUVEC cells were resuspended in a culture medium containing 10% heat-inactivated fetal bovine serum, wherein the cell concentration was 7.5×10^4/ml. The cell suspension was added to a 96-well plate with 100 μL per well. • (3) Treating with drugs: the compounds were diluted to different concentrations, and 60 μLh-PDGF-BB (3T3 cells) and 40 ng/ml h-VEGF-A (HUVEC cells) were added and incubated for 1 hour. • (4) 100 μL of a solution containing the compound and h-PDGF-BB (h-VEGF-A, for the HUVEC cells) was added to a cell culture plate, wherein the final concentration of h-PDGF-BB was 10 ng/ml, the final concentration of h-VEGF-A was 10 ng/ml, and the final concentration for the compounds were 10, 3.3333, 1.1111, 0.3704, 0.1235, 0.0412, 0.0137, 0.0046, and 0.0015 μM. The plate was incubated for 40 hours, and the HUVEC cells were incubated for 89 hours. To each well was added 20 μL Promega Substrate, and the plate was incubated at 37° C. for 7.5 hours, and the HUVEC cells were incubated for 11.5 hours. Then the plate was placed in a microplate reader to read the absorbance at 490 nm. • (5) Data processing
(§6) The curve of the compound concentration vs. Net OD was plotted, wherein Net OD=Compound OD−min. OD. ED50 was calculated according to the following equation: Conc. ED50(x)=(y−b)/a, y=Calculated Net OD for IC50, a=slope, b=intercept.

The subject of test [6] is 3T3 cells. Description: In vitro cellular inhibitory activity, h-PDGF-BB stimulated 3T3 proliferation. In kind it is cell-based. Conditions: Mus musculus, NIH3T3; h-PDGF-BB 10 ng/ml, incubated for 40 hours, absorbance at 490 nm; read-out: ED50 for the 3T3 in vitro cells. The protocol:
as §4, §5, §6

T3 sequence (P09619 33-1106): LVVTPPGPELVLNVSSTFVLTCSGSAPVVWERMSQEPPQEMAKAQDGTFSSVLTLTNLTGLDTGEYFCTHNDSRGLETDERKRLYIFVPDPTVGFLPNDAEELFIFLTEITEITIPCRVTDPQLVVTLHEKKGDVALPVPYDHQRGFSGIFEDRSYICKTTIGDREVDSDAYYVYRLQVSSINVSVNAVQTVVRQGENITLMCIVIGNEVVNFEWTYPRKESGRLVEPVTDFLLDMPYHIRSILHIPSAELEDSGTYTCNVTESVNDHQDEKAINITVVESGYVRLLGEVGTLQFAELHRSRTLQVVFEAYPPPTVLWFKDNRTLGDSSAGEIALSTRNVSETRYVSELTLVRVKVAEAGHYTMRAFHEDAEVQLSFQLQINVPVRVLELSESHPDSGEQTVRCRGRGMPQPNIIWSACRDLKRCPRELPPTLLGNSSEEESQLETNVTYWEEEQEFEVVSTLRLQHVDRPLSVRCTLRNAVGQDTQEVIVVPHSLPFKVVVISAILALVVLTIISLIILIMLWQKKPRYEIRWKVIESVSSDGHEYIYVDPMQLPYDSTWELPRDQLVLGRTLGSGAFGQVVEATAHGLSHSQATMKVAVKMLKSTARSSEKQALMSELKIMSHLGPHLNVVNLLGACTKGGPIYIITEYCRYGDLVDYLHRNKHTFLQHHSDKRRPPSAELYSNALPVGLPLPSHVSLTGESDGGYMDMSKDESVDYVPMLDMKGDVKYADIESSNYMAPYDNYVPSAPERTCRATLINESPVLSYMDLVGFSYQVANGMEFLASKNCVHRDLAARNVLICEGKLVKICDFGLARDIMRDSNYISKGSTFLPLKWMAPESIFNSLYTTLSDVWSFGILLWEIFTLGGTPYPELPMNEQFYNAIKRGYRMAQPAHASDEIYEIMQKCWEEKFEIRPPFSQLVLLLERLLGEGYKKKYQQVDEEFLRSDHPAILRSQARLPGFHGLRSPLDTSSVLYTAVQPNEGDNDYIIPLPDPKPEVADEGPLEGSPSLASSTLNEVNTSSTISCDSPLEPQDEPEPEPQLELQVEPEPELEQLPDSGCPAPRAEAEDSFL
T1 sequence (P11362 22-822): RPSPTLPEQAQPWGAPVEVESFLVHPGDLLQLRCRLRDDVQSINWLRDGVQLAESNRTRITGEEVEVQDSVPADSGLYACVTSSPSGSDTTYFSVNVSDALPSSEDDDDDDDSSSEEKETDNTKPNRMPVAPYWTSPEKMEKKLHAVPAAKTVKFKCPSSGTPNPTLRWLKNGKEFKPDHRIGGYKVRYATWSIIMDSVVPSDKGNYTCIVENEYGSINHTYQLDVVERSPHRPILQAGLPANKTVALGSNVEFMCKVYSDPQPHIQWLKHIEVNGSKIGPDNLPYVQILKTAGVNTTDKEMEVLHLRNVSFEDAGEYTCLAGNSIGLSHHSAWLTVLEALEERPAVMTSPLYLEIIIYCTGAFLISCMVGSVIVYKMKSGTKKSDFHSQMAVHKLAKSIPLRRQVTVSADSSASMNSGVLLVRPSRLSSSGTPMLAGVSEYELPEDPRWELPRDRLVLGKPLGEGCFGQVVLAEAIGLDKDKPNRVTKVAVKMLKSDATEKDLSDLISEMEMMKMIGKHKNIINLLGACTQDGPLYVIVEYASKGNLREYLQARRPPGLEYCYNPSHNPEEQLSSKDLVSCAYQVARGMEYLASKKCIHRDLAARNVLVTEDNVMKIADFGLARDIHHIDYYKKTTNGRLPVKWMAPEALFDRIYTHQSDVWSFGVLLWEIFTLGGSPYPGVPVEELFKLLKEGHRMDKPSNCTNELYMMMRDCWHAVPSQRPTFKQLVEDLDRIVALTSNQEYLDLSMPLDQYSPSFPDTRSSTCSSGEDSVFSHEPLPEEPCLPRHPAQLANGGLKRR

Usually IC50 stands for the concentration that inhibits the measured activity by half. As for `COC(=O)c1ccc2c(c1)NC(=O)/C2=C(\Nc1ccc2c(c1)CCN2C(=O)CN1CCN(C)CC1)c1ccccc1` [Compound 1], the IC50 was found to be 0.1 µM in test [1], 0.23 µM in test [2], 0.0076 µM in test [3] and 0.017 µM in test [4]. Besides, the results for the EC50 in test [5] and in test [6] were 0.056 to 0.084 µM and 0.06 to 0.08 µM, respectively.

`COC(=O)c1ccc2c(c1)NC(=O)/C2=C(\Nc1ccc2c(c1)CCN2C(=O)CN1CCOCC1)c1ccc(F)cc1` [Compound 9 hydrochloride, methyl(Z)-3-((4-fluorophenyl)(1-(2-morpholinylacetyl)indolin-5-ylamino)methylene)-2-oxoindoline-6-carboxylate]: the half-maximal inhibitory concentration (IC50) came out at 9.8 µM in test [2], 0.085 µM in test [3] and 0.77 µM in test [4]. Further, in test [5], the EC50 fell in the range of 0.13 to 0.19 µM.

For `CCOC(=O)c1ccc2c(c1)NC(=O)/C2=C(\Nc1ccc2c(c1)CCN2C(=O)CN1CCOCC1)c1ccccc1` [Compound 10 hydrochloride, ethyl(Z)-3-((1-(2-morpholinylacetyl)indolin-5-ylamino)(phenyl)methylene)-2-oxoindoline-6-carboxylate], the IC50 came to 7.96 µM in test [1], 5.3 µM in test [2], 0.065 µM in test [3] and 0.63 µM in test [4]. Besides, the EC50 in test [5] fell in the range of 0.09 to 0.14 µM.

Take `COC(=O)c1ccc2c(c1)NC(=O)/C2=C(\Nc1ccc2c(c1)CCN2C(=O)Cn1cncn1)c1ccccc1` [Compound 13 hydrochloride, methyl(Z)-3-((1-(2-(1H-1,2,4-triazol-1-yl)acetyl)indolin-5-ylamino)(phenyl)methylene)-2-oxoindoline-6-carboxylate]: the IC50 amounted to 0.7 µM in test [1], 0.54 µM in test [2] and 0.014 µM in test [3]. In test [5], the EC50 is 0.06 to 0.09 µM.
